Results on 18 compounds are retold here after US11993599B2, “Therapeutic compounds” (Genentech, Inc., priority 2021, dated 2024).

SMILES strings stand for the structures.

The target in one test is T1, BRG1 (Homo sapiens, UniProt P51532).
T1 construct: either BRM primary antibody (Cell signaling Cat #11966) or BRG primary antibody (Abcam, ab 110641); endogenous in cells; host or cells: SW1573
As to the kind of experiment: Immunofluorescence assay for BRG1 degradation in SW1573 cells. Format: cell-based. Conditions: 20 hours incubation; for DC50: immunofluorescence mean nuclear signal, read-out: BRG1 IF Degradation IC50; for Dmax: SW1573, 20 h, normalized to a known degrader control, read-out: BRG1 IF Degradation Sinf (%). In a few lines: (§1)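 Cells seeded one day before dosing, exposed to compounds for 20 hours, then fixed, permeabilized, blocked and stained overnight at 4 °C with anti-BRM or anti-BRG1 antibody. Nuclear fluorescence intensity per cell, normalized to a degrader control, gave concentration-response curves fitted with a floating maximum.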

The target in a further test is BRM (Homo sapiens, UniProt P51531). The test can be described thus: Immunofluorescence assay for BRM degradation in SW1573 cells. Format: cell-based. As to conditions: 20 hours incubation; for DC50: immunofluorescence mean nuclear signal, read-out: BRM IF Degradation IC50; for BRM IF Degradation Sinf (%): normalized to a known degrader control. On the set-up: treated overnight at 4° C. with either BRM primary antibody (Cell signaling Cat #11966) or BRG primary antibody; endogenous in cells; host or cells: SW1573. The gist of the method:
as §1

T1 sequence (P51532 whole entry): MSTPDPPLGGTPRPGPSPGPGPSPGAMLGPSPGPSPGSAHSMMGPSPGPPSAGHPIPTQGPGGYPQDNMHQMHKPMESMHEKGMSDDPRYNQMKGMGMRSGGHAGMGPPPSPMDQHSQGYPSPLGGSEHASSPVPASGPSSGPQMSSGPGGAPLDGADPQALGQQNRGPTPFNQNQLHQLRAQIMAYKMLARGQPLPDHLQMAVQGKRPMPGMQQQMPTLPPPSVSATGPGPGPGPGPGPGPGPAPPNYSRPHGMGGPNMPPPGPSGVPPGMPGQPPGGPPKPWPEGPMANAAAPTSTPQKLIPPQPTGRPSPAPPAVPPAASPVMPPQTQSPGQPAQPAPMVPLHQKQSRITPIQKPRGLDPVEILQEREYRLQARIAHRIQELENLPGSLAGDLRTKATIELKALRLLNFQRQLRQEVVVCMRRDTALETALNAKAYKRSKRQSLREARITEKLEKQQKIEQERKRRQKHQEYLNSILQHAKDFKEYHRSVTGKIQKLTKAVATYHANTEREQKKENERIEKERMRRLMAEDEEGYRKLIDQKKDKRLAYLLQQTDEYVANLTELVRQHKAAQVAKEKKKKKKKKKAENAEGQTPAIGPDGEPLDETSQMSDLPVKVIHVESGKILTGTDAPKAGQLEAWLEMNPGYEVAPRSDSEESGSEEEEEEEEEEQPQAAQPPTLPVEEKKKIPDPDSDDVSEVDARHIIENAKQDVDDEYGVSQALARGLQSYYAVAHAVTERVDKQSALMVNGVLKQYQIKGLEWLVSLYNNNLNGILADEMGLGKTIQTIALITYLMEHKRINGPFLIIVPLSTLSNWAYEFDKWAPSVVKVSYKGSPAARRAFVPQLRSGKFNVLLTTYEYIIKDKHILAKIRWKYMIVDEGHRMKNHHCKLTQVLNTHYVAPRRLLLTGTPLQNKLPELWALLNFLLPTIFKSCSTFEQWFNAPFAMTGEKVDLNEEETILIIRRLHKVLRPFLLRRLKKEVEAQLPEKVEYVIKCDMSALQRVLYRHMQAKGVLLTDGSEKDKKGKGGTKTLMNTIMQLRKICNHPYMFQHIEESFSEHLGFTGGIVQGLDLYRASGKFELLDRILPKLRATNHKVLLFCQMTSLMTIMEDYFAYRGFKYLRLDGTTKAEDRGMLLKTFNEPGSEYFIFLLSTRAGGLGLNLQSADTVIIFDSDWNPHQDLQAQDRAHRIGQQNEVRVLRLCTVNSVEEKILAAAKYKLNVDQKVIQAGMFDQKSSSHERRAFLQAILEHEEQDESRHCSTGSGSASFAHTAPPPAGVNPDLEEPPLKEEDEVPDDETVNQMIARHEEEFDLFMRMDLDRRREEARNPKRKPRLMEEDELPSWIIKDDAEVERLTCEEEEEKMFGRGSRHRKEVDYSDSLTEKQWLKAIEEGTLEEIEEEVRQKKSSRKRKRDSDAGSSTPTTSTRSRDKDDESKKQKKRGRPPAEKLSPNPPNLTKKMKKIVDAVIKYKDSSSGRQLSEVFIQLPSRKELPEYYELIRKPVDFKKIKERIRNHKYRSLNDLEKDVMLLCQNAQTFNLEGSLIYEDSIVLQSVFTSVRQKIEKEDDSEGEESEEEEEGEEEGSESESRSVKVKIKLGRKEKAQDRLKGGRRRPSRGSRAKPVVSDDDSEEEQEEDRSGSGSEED
BRM, sequence (P51531 whole entry): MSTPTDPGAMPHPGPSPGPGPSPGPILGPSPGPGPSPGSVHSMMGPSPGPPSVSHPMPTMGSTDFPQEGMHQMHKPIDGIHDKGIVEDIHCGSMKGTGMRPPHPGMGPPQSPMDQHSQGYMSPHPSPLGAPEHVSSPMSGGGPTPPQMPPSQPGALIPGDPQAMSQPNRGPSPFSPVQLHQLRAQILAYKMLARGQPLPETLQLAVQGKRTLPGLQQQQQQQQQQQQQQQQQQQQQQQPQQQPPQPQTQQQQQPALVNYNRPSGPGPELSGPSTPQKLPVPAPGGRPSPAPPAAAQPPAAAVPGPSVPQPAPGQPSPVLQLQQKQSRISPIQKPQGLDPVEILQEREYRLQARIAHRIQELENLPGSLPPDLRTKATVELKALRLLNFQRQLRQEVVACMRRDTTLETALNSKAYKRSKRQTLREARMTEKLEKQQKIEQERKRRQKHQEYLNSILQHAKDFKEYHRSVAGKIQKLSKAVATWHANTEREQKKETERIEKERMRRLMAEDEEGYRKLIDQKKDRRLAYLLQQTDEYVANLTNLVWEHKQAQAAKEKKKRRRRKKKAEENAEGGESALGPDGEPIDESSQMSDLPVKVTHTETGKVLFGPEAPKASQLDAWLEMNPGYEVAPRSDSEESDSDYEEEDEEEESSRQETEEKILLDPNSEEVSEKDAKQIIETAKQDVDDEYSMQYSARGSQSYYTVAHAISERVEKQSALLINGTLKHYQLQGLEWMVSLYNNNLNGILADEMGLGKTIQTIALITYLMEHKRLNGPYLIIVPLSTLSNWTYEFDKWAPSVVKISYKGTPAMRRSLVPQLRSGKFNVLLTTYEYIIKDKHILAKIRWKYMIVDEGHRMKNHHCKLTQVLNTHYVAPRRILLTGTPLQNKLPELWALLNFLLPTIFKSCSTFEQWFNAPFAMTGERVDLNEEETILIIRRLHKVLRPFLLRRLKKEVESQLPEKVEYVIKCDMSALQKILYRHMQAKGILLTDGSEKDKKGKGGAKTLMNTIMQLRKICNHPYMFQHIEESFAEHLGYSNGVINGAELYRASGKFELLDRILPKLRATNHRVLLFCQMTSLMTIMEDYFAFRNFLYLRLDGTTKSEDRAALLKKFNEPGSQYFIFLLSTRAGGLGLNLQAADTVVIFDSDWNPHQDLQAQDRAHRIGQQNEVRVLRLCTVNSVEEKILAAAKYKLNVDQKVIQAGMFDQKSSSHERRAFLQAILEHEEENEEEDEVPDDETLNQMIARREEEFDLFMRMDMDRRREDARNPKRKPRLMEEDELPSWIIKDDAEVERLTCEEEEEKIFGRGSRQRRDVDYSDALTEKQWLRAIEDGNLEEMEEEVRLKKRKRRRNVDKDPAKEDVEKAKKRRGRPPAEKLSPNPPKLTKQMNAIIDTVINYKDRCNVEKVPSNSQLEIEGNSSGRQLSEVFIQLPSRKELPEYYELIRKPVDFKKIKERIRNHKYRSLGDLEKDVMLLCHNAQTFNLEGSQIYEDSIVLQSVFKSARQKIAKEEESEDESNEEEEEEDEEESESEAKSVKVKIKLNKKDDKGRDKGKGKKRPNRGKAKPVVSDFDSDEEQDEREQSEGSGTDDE

For the compound `Nc1nnc(-c2ccccc2O)cc1N1CC2CCC(C1)N2c1ccnc(C#CCN2CCOC(CF)C2)c1` (stereo not drawn) [Compound 114, 2-[6-amino-5-[8-[2-[3-[2-(fluoromethyl)morpholin-4-yl]prop-1-ynyl]-4-pyridyl]-3,8-diazabicyclo[3.2.1]octan-3-yl]pyridazin-3-yl]phenol], at BRG1, the DC50 was greater than 100 nM. Further, on BRM, the DC50 is 10 to 100 nM and the “BRM IF Degradation Sinf (%)” value is recorded as “E (E indicates −30%-−70%)”.
Take `Nc1nnc(-c2ccccc2O)cc1N1CC2CCC(C1)N2c1ccnc(C#CCN2C[C@H]3CC[C@@H]2C3)c1` [Compound 115, 2-[6-amino-5-[8-[2-[3-[(1R,4S)-2-azabicyclo[2.2.1]heptan-2-yl]prop-1-ynyl]-4-pyridyl]-3,8-diazabicyclo[3.2.1]octan-3-yl]pyridazin-3-yl]phenol]: at BRG1, the DC50 is less than 10 nM and the Dmax fell in the range of 30 to 70%. Also, on BRM, the DC50 is less than 10 nM and the “BRM IF Degradation Sinf (%)” value is listed as “E (E indicates −30%-−70%)”.
For `Nc1nnc(-c2ccccc2O)cc1N1CC2CCC(C1)N2c1ccnc(C#CCN2CC3CC2(CO)C3)c1` [Compound 116, 2-[6-amino-5-[8-[2-[3-[1-(hydroxymethyl)-2-azabicyclo[2.1.1]hexan-2-yl]prop-1-ynyl]-4-pyridyl]-3,8-diazabicyclo[3.2.1]octan-3-yl]pyridazin-3-yl]phenol], at BRG1, the DC50 is less than 10 nM and the Dmax is 0 to 30%. Further, at BRM, the DC50 fell in the range of 10 to 100 nM and the “BRM IF Degradation Sinf (%)” value is reported as “E (E indicates −30%-−70%)”.
For the compound `Nc1nnc(-c2ccccc2O)cc1N1CC2CCC(C1)N2c1ccnc(C#CCN2CC[C@@]3(O)C[C@H]3C2)c1` [Compound 117, (1S,6S)-3-[3-[4-[3-[3-amino-6-(2-hydroxyphenyl)pyridazin-4-yl]-3,8-diazabicyclo[3.2.1]octan-8-yl]-2-pyridyl]prop-2-ynyl]-3-azabicyclo[4.1.0]heptan-6-ol], at BRG1, the DC50 lay within 10 to 100 nM and the Dmax fell in the range of 0 to 30%. Further, at BRM, the DC50 was in the range of 10 to 100 nM and the “BRM IF Degradation Sinf (%)” value was “E (E indicates −30%-−70%)”.
For `Nc1nnc(-c2ccccc2O)cc1N1CC2CCC(C1)N2c1ccnc(C#CCN2C[C@@H]3[C@@H](CO)[C@@H]3C2)c1` [Compound 118, 2-[6-amino-5-[8-[2-[3-[(1S,5R)-6-(hydroxymethyl)-3-azabicyclo[3.1.0]hexan-3-yl]prop-1-ynyl]-4-pyridyl]-3,8-diazabicyclo[3.2.1]octan-3-yl]pyridazin-3-yl]phenol], at BRG1, the DC50 was less than 10 nM and the Dmax was in the range of 30 to 70%. Moreover, on BRM, the DC50 lay within 10 to 100 nM and the “BRM IF Degradation Sinf (%)” value was “E (E indicates −30%-−70%)”.
Consider `CC1(C)CN(CC#Cc2cc(N3C4CCC3CN(c3cc(-c5ccccc5O)nnc3N)C4)ccn2)CCO1` [Compound 119, 2-[6-amino-5-[8-[2-[3-(2,2-dimethylmorpholin-4-yl)prop-1-ynyl]-4-pyridyl]-3,8-diazabicyclo[3.2.1]octan-3-yl]pyridazin-3-yl]phenol], for which, at BRG1, the DC50 is greater than 100 nM. Further, at BRM, the DC50 is greater than 100 nM and the “BRM IF Degradation Sinf (%)” value is on record as “E (E indicates −30%-−70%)”.
With `N#CC1CCCN(CC#Cc2cc(N3C4CCC3CN(c3cc(-c5ccccc5O)nnc3N)C4)ccn2)C1` (stereo not drawn) [Compound 120, 1-[3-[4-[3-[3-amino-6-(2-hydroxyphenyl)pyridazin-4-yl]-3,8-diazabicyclo[3.2.1]octan-8-yl]-2-pyridyl]prop-2-ynyl]piperidine-3-carbonitrile], on BRG1, the DC50 lay in the range of 10 to 100 nM and the Dmax is 30 to 70%. Moreover, on BRM, the DC50 was in the range of 10 to 100 nM and the “BRM IF Degradation Sinf (%)” value is listed as “E (E indicates −30%-−70%)”.
Regarding `Nc1nnc(-c2ccccc2O)cc1N1CC2CCC(C1)N2c1ccnc(C#CCN2C3CCC2(CO)CC3)c1` [Compound 121, 2-[6-amino-5-[8-[2-[3-[1-(hydroxymethyl)-7-azabicyclo[2.2.1]heptan-7-yl]prop-1-ynyl]-4-pyridyl]-3,8-diazabicyclo[3.2.1]octan-3-yl]pyridazin-3-yl]phenol], on BRG1, the DC50 was greater than 100 nM and the Dmax was 30 to 70%. Further, at BRM, the DC50 is less than 10 nM and the “BRM IF Degradation Sinf (%)” value was “E (E indicates −30%-−70%)”.
For `CNC(=O)[C@H]1CCN(CC#Cc2cc(N3C4CCC3CN(c3cc(-c5ccccc5O)nnc3N)C4)ccn2)C1` [Compound 122, (3S)-1-[3-[4-[3-[3-amino-6-(2-hydroxyphenyl)pyridazin-4-yl]-3,8-diazabicyclo[3.2.1]octan-8-yl]-2-pyridyl]prop-2-ynyl]-N-methyl-pyrrolidine-3-carboxamide], on BRG1, the DC50 was 10 to 100 nM and the Dmax is 30 to 70%. Also, at BRM, the DC50 was in the range of 10 to 100 nM and the “BRM IF Degradation Sinf (%)” value is “F (F indicates −71%-−120%)”.
In the case of `Nc1nnc(-c2ccccc2O)cc1N1CC2CCC(C1)N2c1ccnc(C#CCN2C[C@@H]3C[C@H]2[C@H]2C[C@@H]32)c1` [Compound 123, 2-[6-amino-5-[8-[2-[3-[(1R,2S,4S,5S)-6-azatricyclo[3.2.1.02,4]octan-6-yl]prop-1-ynyl]-4-pyridyl]-3,8-diazabicyclo[3.2.1]octan-3-yl]pyridazin-3-yl]phenol], on BRG1, the DC50 is less than 10 nM and the Dmax was 30 to 70%. In addition, at BRM, the DC50 is less than 10 nM and the “BRM IF Degradation Sinf (%)” value is recorded as “E (E indicates −30%-−70%)”.
With `Nc1nnc(-c2ccccc2O)cc1N1CC2CCC(C1)N2c1ccnc(C#CCN2CCOC3(CC3)C2)c1` [Compound 124, 2-[6-amino-5-[8-[2-[3-(4-oxa-7-azaspiro[2.5]octan-7-yl)prop-1-ynyl]-4-pyridyl]-3,8-diazabicyclo[3.2.1]octan-3-yl]pyridazin-3-yl]phenol], the DC50 on BRG1 is greater than 100 nM. In addition, on BRM, the DC50 was less than 10 nM and the “BRM IF Degradation Sinf (%)” value is on record as “E (E indicates −30%-−70%)”.
On to `Nc1nnc(-c2ccccc2O)cc1N1CC2CCC(C1)N2c1ccnc(C#CCN2CC3CCCC2C3)c1` (stereo not drawn) [Compound 125, 2-[6-amino-5-[8-[2-[3-(6-azabicyclo[3.2.1]octan-6-yl)prop-1-ynyl]-4-pyridyl]-3,8-diazabicyclo[3.2.1]octan-3-yl]pyridazin-3-yl]phenol], for which, at BRG1, the DC50 was less than 10 nM and the Dmax was in the range of 30 to 70%. On BRM, the DC50 is less than 10 nM and the “BRM IF Degradation Sinf (%)” value is reported as “E (E indicates −30%-−70%)”.
Turning to `Nc1nnc(-c2ccccc2O)cc1N1CC2CCC(C1)N2c1ccnc(C#CCN2CC3CC(C2)C3O)c1` (stereo not drawn) [Compound 126, 3-[3-[4-[3-[3-amino-6-(2-hydroxyphenyl)pyridazin-4-yl]-3,8-diazabicyclo[3.2.1]octan-8-yl]-2-pyridyl]prop-2-ynyl]-3-azabicyclo[3.1.1]heptan-6-ol], on BRG1, the DC50 was less than 10 nM and the Dmax fell in the range of 0 to 30%. In addition, at BRM, the DC50 was less than 10 nM and the “BRM IF Degradation Sinf (%)” value is on record as “E (E indicates −30%-−70%)”.
Turning to `Nc1nnc(-c2ccccc2O)cc1N1CC2CCC(C1)N2c1ccnc(C#CCN2CCC3(CCCC3)C2)c1` [Compound 127, 2-[6-amino-5-[8-[2-[3-(2-azaspiro[4.4]nonan-2-yl)prop-1-ynyl]-4-pyridyl]-3,8-diazabicyclo[3.2.1]octan-3-yl]pyridazin-3-yl]phenol], on BRG1, the DC50 is less than 10 nM and the Dmax is 30 to 70%. Further, at BRM, the DC50 was less than 10 nM and the “BRM IF Degradation Sinf (%)” value is “E (E indicates −30%-−70%)”.
Take `CO[C@H]1CCN(CC#Cc2cc(N3C4CCC3CN(c3cc(-c5ccccc5O)nnc3N)C4)ccn2)C1` [Compound 128, 2-[6-amino-5-[8-[2-[3-[(3S)-3-methoxypyrrolidin-1-yl]prop-1-ynyl]-4-pyridyl]-3,8-diazabicyclo[3.2.1]octan-3-yl]pyridazin-3-yl]phenol]: on BRG1, the DC50 is less than 10 nM and the Dmax lay within 30 to 70%. At BRM, the DC50 is 10 to 100 nM and the “BRM IF Degradation Sinf (%)” value is given as “F (F indicates −71%-−120%)”.
The corresponding values for `Nc1nnc(-c2ccccc2O)cc1N1CC2CCC(C1)N2c1ccnc(C#CCN2CCC3(CCC3)C2)c1` [Compound 129, 2-[6-amino-5-[8-[2-[3-(6-azaspiro[3.4]octan-6-yl)prop-1-ynyl]-4-pyridyl]-3,8-diazabicyclo[3.2.1]octan-3-yl]pyridazin-3-yl]phenol] are less than 10 nM, 30 to 70%, less than 10 nM and “E (E indicates −30%-−70%)”.
The like results for `Nc1nnc(-c2ccccc2O)cc1N1CC2CCC(C1)N2c1ccnc(C#CCN2C[C@@H]3C[C@H]2C[C@H]3O)c1` [Compound 130, (1S,4S,5R)-2-[3-[4-[3-[3-amino-6-(2-hydroxyphenyl)pyridazin-4-yl]-3,8-diazabicyclo[3.2.1]octan-8-yl]-2-pyridyl]prop-2-ynyl]-2-azabicyclo[2.2.1]heptan-5-ol] were, in that order, 10 to 100 nM, 30 to 70%, less than 10 nM and “E (E indicates −30%-−70%)”.
Consider `Nc1nnc(-c2ccccc2O)cc1N1CC2CCC(C1)N2c1ccnc(C#CCN2CCC(F)CC2)c1` [Compound 131, 2-[6-amino-5-[8-[2-[3-(4-fluoro-1-piperidyl)prop-1-ynyl]-4-pyridyl]-3,8-diazabicyclo[3.2.1]octan-3-yl]pyridazin-3-yl]phenol], for which, on BRG1, the DC50 is less than 10 nM and the Dmax was 0 to 30%. Moreover, on BRM, the DC50 is less than 10 nM and the “BRM IF Degradation Sinf (%)” value is given as “E (E indicates −30%-−70%)”.
